# Data reported in ChEMBL document CHEMBL3046853, “Synthesis, antimicrobial evaluation, ot-QSAR and mt-QSAR studies of 2-amino benzoic acid derivatives” (2012).
# The source made the active and inactive calls. The calls are words filed in the database; no cut-off is given here.
# How the values were obtained:
# Staphylococcus aureus [1] = assay: Antibacterial activity against Staphylococcus aureus after 24 hr by serial dilution technique; assay type: functional
# Bacillus subtilis [2] = assay: Bactericidal activity against Bacillus subtilis; assay type: functional, organism-based
# Escherichia coli [3] = assay: Antibacterial activity against Escherichia coli after 24 hr by serial dilution technique; assay type: functional
# Escherichia coli [4] = assay: Bactericidal activity against Escherichia coli; assay type: functional, organism-based
# Staphylococcus aureus [5] = assay: Bactericidal activity against Staphylococcus aureus; assay type: functional, organism-based
# Candida albicans [6] = assay: Fungicidal activity against Candida albicans; assay type: functional, organism-based
# Candida albicans [7] = assay: Antifungal activity against Candida albicans after 2 days by serial dilution technique; assay type: functional
# Aspergillus niger [8] = assay: Fungicidal activity against Aspergillus niger after 7 days by serial dilution technique; assay type: functional, organism-based
# Aspergillus niger [9] = assay: Antifungal activity against Aspergillus niger after 7 days by serial dilution technique; assay type: functional
# Bacillus subtilis [10] = assay: Antibacterial activity against Bacillus subtilis after 24 hr by serial dilution technique; assay type: functional
compound,measurement,setting,value
Nc1ccccc1C(=O)Nc1ccc2ccccc2c1,-logMIC,Staphylococcus aureus [1],1.32
same,Activity,Bacillus subtilis [2],Active
same,-logMIC,Escherichia coli [3],1.62
same,Activity,Escherichia coli [4],Active
same,Activity,Staphylococcus aureus [5],Active
same,Activity,Candida albicans [6],Active
same,-logMIC,Candida albicans [7],1.32
same,Activity,Aspergillus niger [8],Active
same,-logMIC,Aspergillus niger [9],1.62
same,-logMIC,Bacillus subtilis [10],2.23
